Measurements taken from article PMC7924852, “The Emericellipsins A–E from an Alkalophilic Fungus Emericellopsis alkalina Show Potent Activity against Multidrug-Resistant Pathogenic Fungi” (Journal of Fungi, 2021).

Legend:
[1] = system: C. krusei 1447; experiment: Broth microdilution MIC and MFC (CLSI); format: cell-based
[2] = system: A. terreus 497; experiment: Disc-diffusion antifungal assay; format: cell-based; settings: 40 µg/disc; A. terreus 497, pathogenic clinical isolate
[3] = system: A. fumigatus VKM F-37; experiment: Broth two-fold microdilution MIC (CLSI); format: cell-based, Aspergillus fumigatus; settings: A. fumigatus VKM F-37; RPMI 1640 pH 7.0, 35 °C, 48 h
[4] = system: human erythrocytes; experiment: Hemolytic activity; format: cell-based; settings: for hemolytic activity (in words): concentrations of 0–20 μM
Description: Erythrocytes were isolated from the peripheral blood of healthy donors after incubation at 4 °C for 2–3 h. All the donors are males, 35–38 years old. All of them have approved to collect blood samples, and the authors have permissions filled. All the blood samples have been destroyed after the experiments finished. The red blood cell suspension (100 μL) was pelleted, washed twice with saline, then the pellet was resuspended in 500 μL saline or distilled water (positive control of hemolysis). The compounds were added (final concentration of 20 μM). The samples were incubated for 1 h at 37 °C and centrifuged at 2000 rpm for 1.5 min. The OD of supernatants was measured on a Multiscan spectrophotometer FC (Thermo Scientific, Waltham, MA, USA) at a wavelength of 540 nm. The percent hemolysis was calculated relative to the positive control, taken as 100%.
Erythrocytes were isolated from the human blood: On the day of the study, blood was taken from the donor’s cubital vein into a test tube with an anticoagulant. The blood was incubated at 4 °C for 2‒3 h. A suspension of erythrocytes (100 μL) was diluted with a physiological buffer (pH 7.2) to a total volume of 500 μL. Solutions of the test substances with an initial concentration of […] (DMSO) were diluted with a PBS buffer (1:10). The resulting solutions were introduced into Eppendorf tubes in the amounts required to create the studied concentration (5, 10, or 20 μM). A mixture of PBS with erythrocytes was added to a total volume of 200 μL. The control (C) was a mixture of erythrocytes with H2O (100% of hemolysis). The intact control solution (I) was a mixture of erythrocytes with the PBS and solvent (DMSO). The antibiotic gramicidin S (Gram S) was used as a control sample with active hemolysis. The mixture was incubated for 1 h at 37 °C. The measurement of the optical density of the supernatants was carried out on a BioTek ELx800 automatic microplate photometer (USA) at 570 nm. The optical density of the liquid above the sediment in the control sample with H2O was taken as 100%.

[5] = system: C. tropicalis 156; experiment: Broth microdilution MIC and MFC (CLSI); format: cell-based
[6] = system: A. niger 1133 m; experiment: Broth two-fold microdilution MIC (CLSI); format: cell-based, Aspergillus niger; settings: A. niger 1133 m clinical isolate; RPMI 1640 pH 7.0, 35 °C, 48 h
[7] = system: A. niger ATCC 16404; experiment: Broth two-fold microdilution MIC (CLSI); format: cell-based, Aspergillus niger; settings: A. niger ATCC 16404; RPMI 1640 pH 7.0, 35 °C, 48 h, no visible growth
[8] = system: isolates of Aspergillus spp.; experiment: Broth microdilution MIC, ranges over mould isolates; format: cell-based; settings: range over opportunistic and clinical isolates of Aspergillus spp. (Table 4)
[9] = system: A. fumigatus 390 m; experiment: Broth two-fold microdilution MIC (CLSI); format: cell-based, Aspergillus fumigatus; settings: A. fumigatus 390 m clinical isolate; RPMI 1640 pH 7.0, 35 °C, 48 h
[10] = system: A. terreus 497; experiment: Broth two-fold microdilution MIC (CLSI); format: cell-based; settings: A. terreus 497 clinical isolate; RPMI 1640 pH 7.0, 35 °C, 48 h
[11] = system: A. fumigatus 390 m; experiment: Disc-diffusion antifungal assay; format: cell-based, Aspergillus fumigatus; settings: 40 µg/disc, pathogenic clinical isolate

“Methyldecanoyl-MePro-AHMOD-Ala-Aib-Ile-Iva-βAla-Alaol-Glyol [EmiA, emericellipsin A, nonribosomal lipopeptaibol, major compound of E. alkalina VKPM F1428]” was tested, and the MFC ([1]; C. krusei 1447, lowest concentration causing 95% death) was 2 µg/mL, the MIC ([1]; C. krusei 1447 clinical isolate, RPMI 1640 pH 7.0, 35 °C, 24 h) was 0.5 µg/mL and the “Zone of Inhibition” value [2] was 14 ± 0.28 mm. The “Minimal Inhibitory Concentration (MIC)” value [3] was 2 µg/mL, the hemolysis ([4]; 20 μM, 1 h, 37 °C, relative to H2O control = 100%, OD 540 nm or 570 nm, triplicate, mean) was “approximately 12.6%” and the “hemolytic activity (in words)” value [4] was “no hemolytic activity”. The “hemolytic activity (in words)” value ([4]; listed as Emericellipsin A) was “negligible hemolytic activity”, the MFC ([5]; C. tropicalis 156, lowest concentration causing 95% death) was 2 µg/mL and the MIC ([5]; C. tropicalis 156 clinical isolate, RPMI 1640 pH 7.0, 35 °C, 24 h) was 1 µg/mL. For the same substance, the “Minimal Inhibitory Concentration (MIC)” value [6] was 4 µg/mL, the “Minimal Inhibitory Concentration (MIC)” value [7] was 4 µg/mL and the MIC range [8] was 0.5 to 4 µg/mL. For the same substance, the “Minimal Inhibitory Concentration (MIC)” value [9] was 2 µg/mL, the “Minimal Inhibitory Concentration (MIC)” value [10] was 1 µg/mL and the “Zone of Inhibition” value [11] was 20 ± 0.40 mm.
